Test results as given in publication PMC8286840, “Identifying SARS-CoV-2 antiviral compounds by screening for small molecule inhibitors of Nsp3 papain-like protease” (Biochemical Journal, 2021).
Structures can show the parent of a compound that is named as a salt. Where two headings read alike, the source gives them in different places.

Tests used:
[1] = target: T1, SARS-CoV-2 PLpro (nsp3 1564–1878) (Severe acute respiratory syndrome coronavirus 2, UniProt P0DTD1); assay: biochemical; set-up: FRET-quenched peptide (Pro3) cleavage by PLpro, 10 min pre-incubation, slope over 20 min, normalised to no-compound control; conditions: low concentration screen, read-out: % of control remaining
[2] = target: T1, SARS-CoV-2 PLpro (nsp3 1564–1878); assay: biochemical; set-up: FRET-quenched peptide (Pro3) cleavage by PLpro, 10 min pre-incubation, slope over 20 min, normalised to no-compound control; conditions: high concentration screen, read-out: % of control remaining

## Nc1ccn([C@H]2CC[C@@H](CO)O2)c(=O)n1 [2',3'-dideoxycytidine]
[1]; Well no.=549
  remaining activity at 1.25 µM: 98.3%
[2]; Well no.=549
  remaining activity at 3.75 µM: 96.6%

## Nc1ccn([C@@H]2O[C@H](CO)[C@@H](O)[C@@H]2O)c(=O)n1 [Cytarabine]
[1]; Well no.=1938
  remaining activity at 1.25 µM: 99.8%
[1]; Well no.=8847
  remaining activity at 1.25 µM: 108%
[2]; Well no.=1938
  remaining activity at 3.75 µM: 98.4%
[2]; Well no.=8847
  remaining activity at 3.75 µM: 105%

## O=C1c2ccccc2-n2c1nc1ccccc1c2=O [Tryptanthrin]
[1]; Well no.=3376
  remaining activity at 1.25 µM: 96.9%
[2]; Well no.=3376
  remaining activity at 3.75 µM: 100%

## C[C@H]1CN(C[C@H](Cc2ccccc2)C(=O)NCC(=O)O)CC[C@@]1(C)c1cccc(O)c1 [Alvimopan (dihydrate)]
[1]; Well no.=6559
  remaining activity at 1.25 µM: 100%
[2]; Well no.=6559
  remaining activity at 3.75 µM: 101%

## CCC1(c2cccc(O)c2)CCCCN(C)C1 (stereo not shown) [Meptazinol HCl]
[1]; Well no.=4636
  remaining activity at 1.25 µM: 93.5%
[2]; Well no.=4636
  remaining activity at 3.75 µM: 90.6%

## CO/N=C(\C(=O)N[C@@H]1C(=O)N2C(C(=O)O)=C(COC(C)=O)CS[C@H]12)c1csc(N)n1 [Cefotaxime sodium]
[1]; Well no.=186
  remaining activity at 1.25 µM: 93.2%
[2]; Well no.=186
  remaining activity at 3.75 µM: 94.1%

## OCCn1cc(-c2ccc3c(c2)CC/C3=N\O)c(-c2ccncc2)n1 [GDC-0879]
[1]; Well no.=5043
  remaining activity at 1.25 µM: 104%
[2]; Well no.=5043
  remaining activity at 3.75 µM: 104%

## C[C@H]1CCC/C=C/[C@@H]2C[C@H](O)C[C@H]2[C@H](O)/C=C/C(=O)O1 [Brefeldin A]
[1]; Well no.=3093
  remaining activity at 1.25 µM: 101%
[2]; Well no.=3093
  remaining activity at 3.75 µM: 100%

## O=c1[nH][nH]c2nnc(-c3c(-c4ccccc4)nn4ccccc34)cc12 [ERK Inhibitor II, Negative control]
[1]; Well no.=2456
  remaining activity at 1.25 µM: 98.3%
[2]; Well no.=2456
  remaining activity at 3.75 µM: 102%

## C[C@@H]1COC(Nc2ccc3ncnc(Nc4ccc(OCc5nccs5)c(Cl)c4)c3c2)=N1 [ARRY334543]
[1]; Well no.=5073
  remaining activity at 1.25 µM: 102%
[2]; Well no.=5073
  remaining activity at 3.75 µM: 106%

## COc1cc(C(=O)O[C@H]2C/C(C)=C/CC/C(C)=C/[C@H](O)[C@@H]2C(C)C)ccc1O [Tschimganidin]
[1]; Well no.=3207
  remaining activity at 1.25 µM: 89.2%
[2]; Well no.=3207
  remaining activity at 3.75 µM: 100%

## CC(=O)NCCOC(=O)[C@H](Oc1cccc(C(F)(F)F)c1)c1ccc(Cl)cc1 [2-(acetylamino)ethyl (2R)-(4-chlorophenyl)[3-(trifluoromethyl)phenoxy]ethanoate]
[1]; Well no.=6055
  remaining activity at 1.25 µM: 100%
[2]; Well no.=6055
  remaining activity at 3.75 µM: 97.1%

## CNC[C@H](O)[C@@H](O)[C@H](O)[C@H](O)CO [Meglumine]
[1]; Well no.=1565
  remaining activity at 1.25 µM: 104%
[2]; Well no.=1565
  remaining activity at 3.75 µM: 104%

## COc1cc(NC(=O)c2ccc(-c3ccc(Cl)cc3)o2)cc(OC)c1 [A-803467]
[1]; Well no.=5117
  remaining activity at 1.25 µM: 105%
[2]; Well no.=5117
  remaining activity at 3.75 µM: 103%

## CCOc1nc2cccc(C(=O)O)c2n1Cc1ccc(-c2ccccc2-c2nnn[nH]2)cc1 [Candesartan]
[1]; Well no.=1846
  remaining activity at 1.25 µM: 96.4%
[1]; Well no.=7380
  remaining activity at 1.25 µM: 103%
[2]; Well no.=1846
  remaining activity at 3.75 µM: 96.2%
[2]; Well no.=7380
  remaining activity at 3.75 µM: 105%

## CC1(C)CNc2cc(NC(=O)c3cccnc3NCc3ccncc3)ccc21 [Motesanib Diphosphate (AMG-706)]
[1]; Well no.=4611
  remaining activity at 1.25 µM: 101%
[2]; Well no.=4611
  remaining activity at 3.75 µM: 100%

## COc1ccc(S(=O)(=O)Nc2nc(-c3cccc([N+](=O)[O-])c3)cs2)cc1OC [Ro 61-8048]
[1]; Well no.=5865
  remaining activity at 1.25 µM: 109%
[2]; Well no.=5865
  remaining activity at 3.75 µM: 106%

## O=c1[nH]c(=O)n([C@@H]2O[C@H](CO)[C@@H](O)[C@H]2O)cc1F [5-Fluorouridine]
[1]; Well no.=7900
  remaining activity at 1.25 µM: 95.4%
[2]; Well no.=7900
  remaining activity at 3.75 µM: 91.5%

## Fc1ccc(Cl)cc1-c1nc(Nc2ccncc2)c2nccnc2n1 [SD 208 - 2-(5-Chloro-2-fluorophenyl)-4-[(4-pyridyl)amino]pteridine]
[1]; Well no.=2680
  remaining activity at 1.25 µM: 97.3%
[2]; Well no.=2680
  remaining activity at 3.75 µM: 99.7%

## CC1CNCCN1S(=O)(=O)c1cccc2cnccc12 (stereo not shown) [1-(5-Isoquinolinylsulfonyl)-2-methylpiperazine dihydrochloride]
[1]; Well no.=965
  remaining activity at 1.25 µM: 104%
[2]; Well no.=965
  remaining activity at 3.75 µM: 103%

## CCN(CCCCO)C(C)Cc1ccc(O)cc1 (stereo not shown) [O-desmethyl Mebeverine alcohol (hydrochloride)]
[1]; Well no.=8489
  remaining activity at 1.25 µM: 94.7%
[2]; Well no.=8489
  remaining activity at 3.75 µM: 99.4%

## Cc1cc(Nc2nc(-c3ccccc3)nc3ccccc23)n[nH]1 [GSK-3 Inhibitor XIII]
[1]; Well no.=2502
  remaining activity at 1.25 µM: 94.8%
[2]; Well no.=2502
  remaining activity at 3.75 µM: 96.8%

## CCCCc1oc2ccccc2c1C(=O)c1cc(I)c(OCCN(CC)CC)c(I)c1 [Amiodarone.HCl]
[1]; Well no.=1591
  remaining activity at 1.25 µM: 104%
[2]; Well no.=1591
  remaining activity at 3.75 µM: 103%

## CC(C)n1cnc2c(NCc3ccccc3O)nc(NCCCO)nc21 [Cdk Inhibitor, p35]
[1]; Well no.=2387
  remaining activity at 1.25 µM: 94.5%
[2]; Well no.=2387
  remaining activity at 3.75 µM: 97%

## CN(C)[C@@H]1CCc2[nH]c3ccc(NC(=O)c4ccc(F)cc4)cc3c2C1 [N-[(3R)-3-(dimethylamino)-2,3,4,9-tetrahydro-1H-carbazol-6-yl]-4-fluorobenzamide hydrochloride]
[1]; Well no.=6008
  remaining activity at 1.25 µM: 97.7%
[2]; Well no.=6008
  remaining activity at 3.75 µM: 95.9%

## OC[C@H]1O[C@@H](O[C@@H]2OC=C[C@H]3[C@H](O)[C@@H]4O[C@]4(CO)[C@@H]23)[C@H](O)[C@@H](O)[C@@H]1O [Catalpol]
[1]; Well no.=3274
  remaining activity at 1.25 µM: 102%
[2]; Well no.=3274
  remaining activity at 3.75 µM: 103%

## CNCC(O)c1ccc(O)cc1 (stereo not shown) [p-Synephrine]
[1]; Well no.=7313
  remaining activity at 1.25 µM: 98.5%
[2]; Well no.=7313
  remaining activity at 3.75 µM: 102%

## CCC(C)(Oc1ccc(C2(c3ccc(OC(C)(CC)C(=O)O)cc3)CCCCC2)cc1)C(=O)O (stereo not shown) [Clinofibrate]
[1]; Well no.=5332
  remaining activity at 1.25 µM: 96.6%
[2]; Well no.=5332
  remaining activity at 3.75 µM: 98.1%

## Cc1c(-c2ccccc2)oc2c(C(=O)OCCN3CCCCC3)cccc2c1=O [Flavoxate HCl]
[1]; Well no.=5084
  remaining activity at 1.25 µM: 99%
[2]; Well no.=5084
  remaining activity at 3.75 µM: 102%

## CS(=O)(=O)n1cc2c(n1)CN([C@H]1CO[C@H](c3cc(F)ccc3F)[C@@H](N)C1)C2 [Omarigliptin (MK-3102)]
[1]; Well no.=8824
  remaining activity at 1.25 µM: 98.1%
[2]; Well no.=8824
  remaining activity at 3.75 µM: 96.5%

## Nc1ncnc2c1ncn2[C@@H]1O[C@H](CO)C[C@H]1O [Cordycepin]
[1]; Well no.=7860
  remaining activity at 1.25 µM: 101%
[2]; Well no.=7860
  remaining activity at 3.75 µM: 95.9%

## COc1nccc(-c2c(-c3ccc(F)cc3)ncn2[C@H]2CC[C@H](O)CC2)n1 [SB 239063 - trans-4-[4-(4-Fluorophenyl)-5-(2-methoxy-4-pyrimidinyl)-1H-imidazol-1-yl]cyclohexanol]
[1]; Well no.=2478
  remaining activity at 1.25 µM: 98.8%
[2]; Well no.=2478
  remaining activity at 3.75 µM: 98.4%

## C[C@]12CC[C@@H]3c4ccc(O)cc4CC[C@H]3[C@@H]1CC[C@H]2O [Alpha-Estradiol]
[1]; Well no.=6693
  remaining activity at 1.25 µM: 98.9%
[2]; Well no.=6693
  remaining activity at 3.75 µM: 93.1%
